Assay results published in US20210177778A1, “EXOSOME PRODUCTION PROMOTER” (DAICEL CORPORATION, priority 2017, published 2021).

Tested on: Human neuroblastoma-derived SH-SY5Y cell
Experiment: Number of exosome particles released by SH-SY5Y cells after sphingolipid addition (qNano)
Type: cell-based
Settings: 10 μM sphingolipid, 24 hours, particles per mg cell protein
Experimental: Human neuroblastoma-derived SH-SY5Y cell was used as the cultured cell. After the cell was inoculated in a 6-well plate at 2.5×10^5 cells/well together with a medium (50% Ham's F12/50% E-MEM) and cultured at 37° C. for 24 hours, the animal ceramide (Cer), sphingomyelin (SM), or glucosylceramide (GuCer) sphingolipid was each added to each well. The sphingolipid was suspended in a serum-free medium (50% Ham's F12/50% E-MEM) containing 3% bovine serum albumin (BSA), and added so that the concentration in the well was 10 μM. The control was performed when the added amount of sphingolipid was 0 μM. […]
The exosome recovered by the centrifugation method was suspended in a HEPES/KCl buffer, and then the number of particles was measured with a nanoparticle analyzer qNano (Izon Inc.). The measured value was expressed as the number of particles per protein mass (mg) of the derived cell calculated by the BCA method. […]
Experimental Example 2 was performed under the same conditions as in the above Experimental Example 1 except that the konjac-derived glucosylceramide (kGluCer) or the konjac-derived ceramide (kCer) are used as the sphingolipid and sphingolipids having concentrations of 5 μM, 7.5 μM, or 10 μM, respectively, were added to the cell in place of a concentration of 0 μM (control), and the number of exosome particles was measured.

Row | SMILES | number of exosome particles compared to the control
1 | CCCCCCCCCCCCC/C=C/[C@@H](O)[C@H](CO)NC(=O)CCCCC [C6 ceramide, N-hexanoyl-D-erythro-sphingosine] | further promoted
2 | CCCCCCCCCCCCC/C=C/[C@@H](O)[C@H](CO)NC(=O)CCCCCCCCCCCCCCCCC [C18 ceramide, N-stearoyl-D-erythro-sphingosine] | further promoted
